Measured values published in patent publication US11773108B2, “Indene derivatives useful in treating pain and inflammation” (TARO PHARMACEUTICALS INC., priority 2018, dated 2023).

Test: Metabolism by human liver microsomes
Type: in vitro ADME
Settings: 10 μM, in the presence of NADPH; for Scoring: % of drug remaining after 60 minutes (PDR60): human liver microsomes 1 mg/mL protein, LC-MS/MS
Method: Representative compounds of the invention (i.e., test compounds) and the positive control, 7-ethoxycoumarin, were prepared as stock solutions at 10 mM in DMSO and eventually diluted to 10 μM in the test plate, with an appropriate amount of acetonitrile and tris HCl buffer. Final DMSO and acetonitrile concentrations were […] and 0.5% respectively. NADPH was prepared in tris HCl buffer to a stock of 10 mM. A frozen aliquot of liver microsomes was retrieved from the freezer (−80° C.) and thawed by placing the tube on wet ice. After thawing, the tubes were gently mixed and the required amount, transferred to tris HCl buffer. Test compounds or positive control were pre-incubated, separately, for 10 minutes, with liver microsomes (1 mg/mL protein), at 37° C., in 100 mM Tris HCl at pH 7.5. After preincubation the reaction was started by adding 1 mM NADPH (pre-equilibrated to 30° C.) and the reaction allowed to proceed for 60 minutes. At 60 minutes, a 50 μL aliquot was removed and quenched with 200 uL of acetonitrile containing a mixture of internal standards (Tolbutamide (500 ng/mL) and Telmistartan (500 ng/mL)) and vortexed then centrifuged at 4000 rpm for 10 minutes (Eppendorf 5810R). The supernatant was transferred to a 96 well plate for LC-MS/MS analysis.
An LC-MS/MS method was devised for the test compounds and the control, using a AB Sciex API 4000 system coupled to a NEXAR™ UHPLC (Shimadzu) system. Analytes were separated on a Phenomenex Kinetex C18 column (50×2.1 mm, 5 μm) using a gradient that was appropriate for each compound, at a flow rate of 1 ml/minute, utilizing a mobile phase of 0.1% formic acid in MILLI-Q™ water (A) and 0.1% formic acid in acetonitrile (B). The MS instrument was operated in positive mode (ESI+)/negative (ESI−). The multiple reaction monitoring (MRM) transition for test and control compounds was used for the LC-MS/MS analysis. MRM transitions for control compound 7-ethoxycoumarinm were Quadropole 1: 191.0, Quadropole 3:163.0, dwell time: 75 msec, using curtain gas settings of 5 V, ion-spray voltage of 5500 V, temperature of 50° C. and gas settings for nebulizer and auxiliary set to 30 and 40 psi, respectively. The interface heater was kept on. Entrance potential and collision cell exit potential were varied to tune for a specific compound.
Using a suitable LC-MS/MS method, the percentage of drug remaining at 60 minutes ([…]) was assessed by comparing the average analyte to internal standard area ratio at 60 minutes to the average analyte to internal standard area ratio at 0 time control, as a percentage, from a 5 to 10 μL sample injection.
According to the above assay, the test compounds listed in Table 7 below were active in the Human liver microsome assay at 10 μM and the % of drug remaining after 60 minutes (PDR60), in the presence of NADPH, was assessed by LC-MS/MS. Average PDR60 for the standard compound, 7-ethoxycoumarin was <=65% in the presence of NADPH. Scoring for the test compounds, in the presence of NADPH, was as follows: “A” represents a PDR60 of 81 to 100%, “B” represents a PDR60 of 61 to 80%, “C” represents a PDR60 of 31 to 60% and “D” represents a PDR60 of 0 to 30%.

## C[C@]1([C@H]2CC[C@]3(C)c4[nH]ncc4C[C@H]3[C@@H]2CN)Cc2cn[nH]c2C[C@@H]1CO [Ia-7, ((5R,6S)-5-((4aS,5R,6S,8aS)-5-(aminomethyl)-8a-methyl-1,4,4a,5,6,7,8,8a-octahydroindeno[1,2-c]pyrazol-6-yl)-5-methyl-4,5,6,7-tetrahydro-1H-indazol-6-yl)methanol]
  Scoring: % of drug remaining after 60 minutes (PDR60): B (“B” represents a PDR60 of 61 to 80%)

## C=C1CC[C@H]2[C@H](CN)[C@@H]([C@@]3(C)Cc4cnn(-c5ccccc5F)c4C[C@@H]3CO)CC[C@]12C [Ia-32, ((5R,6S)-5-((3aS,4R,5S,7aS)-4-(aminomethyl)-7a-methyl-1-methyleneoctahydro-1H-inden-5-yl)-1-(2-fluorophenyl)-5-methyl-4,5,6,7-tetrahydro-1H-indazol-6-yl)methanol]
  Scoring: % of drug remaining after 60 minutes (PDR60): D (“D” represents a PDR60 of 0 to 30%)

## COc1ccc(-n2ncc3c2C[C@H](CO)[C@@](C)([C@H]2CC[C@]4(C)[C@@H](C)CC[C@H]4[C@@H]2CN)C3)cc1 [Ia-49, ((5R,6S)-5-((1S,3aS,4S,5S,7aR)-4-(aminomethyl)-1,7a-dimethyloctahydro-1H-inden-5-yl)-1-(4-methoxyphenyl)-5-methyl-4,5,6,7-tetrahydro-1H-indazol-6-yl)methanol]
  Scoring: % of drug remaining after 60 minutes (PDR60): D (“D” represents a PDR60 of 0 to 30%)

## C=C1CC[C@H]2[C@H](CN)[C@@H]([C@@]3(C)Cc4cnn(-c5ccc(F)cn5)c4C[C@@H]3CO)CC[C@]12C [Ia-30, ((5R,6S)-5-((3aS,4R,5S,7aS)-4-(aminomethyl)-7a-methyl-1-methyleneoctahydro-1H-inden-5-yl)-1-(5-fluoropyridin-2-yl)-5-methyl-4,5,6,7-tetrahydro-1H-indazol-6-yl)methanol]
  Scoring: % of drug remaining after 60 minutes (PDR60): D (“D” represents a PDR60 of 0 to 30%)

## C=C1CC[C@H]2[C@H](CN)[C@@H]([C@@]3(C)Cc4cnn(-c5ccc(OC)cc5)c4C[C@@H]3CO)CC[C@]12C [Ia-14, ((5R,6S)-5-((3aS,4R,5S,7aS)-4-(aminomethyl)-7a-methyl-1-methyleneoctahydro-1H-inden-5-yl)-1-(4-methoxyphenyl)-5-methyl-4,5,6,7-tetrahydro-1H-indazol-6-yl)methanol]
  Scoring: % of drug remaining after 60 minutes (PDR60): D (“D” represents a PDR60 of 0 to 30%)

## CCOc1ccc2ccc(=O)oc2c1 [7-ethoxycoumarin, reference compound]
Standard compound, human liver microsomes, 60 minutes
  Average PDR60: <= 65%

## C=C1CC[C@H]2[C@H](CN)[C@@H]([C@@]3(C)Cc4cn(-c5ccc(F)c(F)c5)nc4C[C@@H]3CO)CC[C@]12C [Ia-23, ((5R,6S)-5-((3aS,4R,5S,7aS)-4-(aminomethyl)-7a-methyl-1-methyleneoctahydro-1H-inden-5-yl)-2-(3,4-difluorophenyl)-5-methyl-4,5,6,7-tetrahydro-2H-indazol-6-yl)methanol]
  Scoring: % of drug remaining after 60 minutes (PDR60): C (“C” represents a PDR60 of 31 to 60%)

## C=C1CC[C@H]2[C@H](CN)[C@@H]([C@@]3(C)Cc4cn(-c5ccc(Oc6ccc(F)cc6)cc5)nc4C[C@@H]3CO)CC[C@]12C [Ia-25, ((5R,6S)-5-((3aS,4R,5S,7aS)-4-(aminomethyl)-7a-methyl-1-methyleneoctahydro-1H-inden-5-yl)-2-(4-(4-fluorophenoxy)phenyl)-5-methyl-4,5,6,7-tetrahydro-2H-indazol-6-yl)methanol]
  Scoring: % of drug remaining after 60 minutes (PDR60): B (“B” represents a PDR60 of 61 to 80%)

## C=C1CC[C@H]2[C@H](CN)[C@@H]([C@@]3(C)Cc4cnn(-c5cccc(F)c5)c4C[C@@H]3CO)CC[C@]12C [Ia-40, ((5R,6S)-5-((3aS,4R,5S,7aS)-4-(aminomethyl)-7a-methyl-1-methyleneoctahydro-1H-inden-5-yl)-1-(3-fluorophenyl)-5-methyl-4,5,6,7-tetrahydro-1H-indazol-6-yl)methanol]
  Scoring: % of drug remaining after 60 minutes (PDR60): D (“D” represents a PDR60 of 0 to 30%)
